Source: patent publication US7723523B2, “Tetrahydropyridothiophenes” (4SC AG, priority 2004, dated 2010)

Columns and labels:
[1] = tested on: RKO (RKOp27) human colon adenocarcinoma cells; assay: Alamar Blue cell viability assay, anti-proliferative/cytotoxic activity on proliferating RKOp27 cells; format: cell-based; details: absence of Ponasterone A, 72 hours incubation, read-out: IC50 RKO p27 proliferating
Outline: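 RKOp27 subclone of RKO cells, 4000/well in DMEM with 10% FCS, was treated 24 h after seeding with semi-log compound dilutions in quadruplicate for 72 h at 37 °C, 5% CO2. Alamar Blue fluorescence (ex 544/em 590 nm) was read as % viability of untreated cells, and IC50 was taken from concentration-effect curves.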

[2] = tested on: RKO colon adenocarcinoma cells (RKOp27) arrested by expression of ectopic p27Kip1; assay: Alamar Blue cell viability assay on RKOp27 cells arrested by Ponasterone A-induced p27Kip1 (cell cycle specific mode of action); format: cell-based; details: Homo sapiens, RKOp27, 72 h, cells arrested by p27Kip1 induced with 10 μM Ponasterone A, 72 hours incubation, read-out: IC50 RKO p27 arrested
Outline: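 Viability measured by Alamar Blue fluorescence (ex 544, em 590 nm) after 72 h, 37 °C compound exposure in quadruplicate, normalized to untreated cells as 100%. Cells were p27Kip1-arrested RKOp27, induced with 10 μM Ponasterone A at seeding; compound added 24 h later.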

Question: How did the IC50 [1] turn out when `CCOC(=O)N1CCc2c(sc(NC(=O)/C=C/c3cccc(OC)c3OCC)c2C#N)C1` [Example 96, 3-Cyano-2-[(E)-3-(2-ethoxy-3-methoxy-phenyl)-allanoylamino]-4,7-dihydro-5H-thieno[2,3-c]pyridine-6-carboxylic acid ethyl ester] was run?
Answer: Its IC50 is no more than 2 µM.

Question: And the IC50 [2]?
Answer: The IC50 was no less than 100 µM.

Question: Which IC50 [1] does the source give for `CCOC(=O)N1CCc2c(sc(NC(=O)/C=C/c3cccn3C)c2C#N)C1` [Example 97, 3-Cyano-2-[(E)-3-(1-methyl-1H-pyrrol-2-yl)-allanoylamino]-4,7-dihydro-5H-thieno[2,3-c]pyridine-6-carboxylic acid ethyl ester] here?
Answer: The IC50 was no more than 2 µM.

Question: What about the IC50 [2] of the same compound?
Answer: Its IC50 is no less than 100 µM.

Question: Which results are given for `CCOC(=O)N1CCc2c(sc(NC(=O)/C=C/c3ccccc3OC(C)C)c2C#N)C1` [Example 98, 3-Cyano-2-[(E)-3-(2-isopropoxy-phenyl)-allanoylamino]-4,7-dihydro-5H-thieno[2,3-c]pyridine-6-carboxylic acid ethyl ester]?
Answer: IC50 [1]: ≤ 2 µM; IC50 [2]: ≥ 100 µM

Question: Which IC50 [1] does the source give for `CCCOc1ccccc1/C=C/C(=O)Nc1sc2c(c1C#N)CCN(C(=O)OCC)C2` [Example 99, 3-Cyano-2-[(E)-3-(2-propoxy-phenyl)-allanoylamino]-4,7-dihydro-5H-thieno[2,3-c]pyridine-6-carboxylic acid ethyl ester] here?
Answer: The IC50 was no more than 0.5 µM.

Question: What about the IC50 [2] of the same compound?
Answer: The IC50 was no less than 50 µM.

Question: Which results are given for `CCOC(=O)N1CCc2c(sc(NC(=O)/C=C/c3ccccn3)c2C#N)C1` [Example 100, 3-Cyano-2-((E)-3-pyridin-2-yl-allanoylamino)-4,7-dihydro-5H-thieno[2,3-c]pyridine-6-carboxylic acid ethyl ester]?
Answer: IC50 [1]: ≤ 2 µM; IC50 [2]: ≥ 100 µM

Question: Which results are given for `CCOC(=O)N1CCc2c(sc(NC(=O)/C=C/c3cc(OC)ccc3OC)c2C#N)C1` [Example 102, 3-Cyano-2-[(E)-3-(2,5-dimethoxy-phenyl)-allanoylamino]-4,7-dihydro-5H-thieno[2,3-c]pyridine-6-carboxylic acid ethyl ester]?
Answer: IC50 [1]: ≤ 2 µM; IC50 [2]: ≥ 100 µM

Question: With `CCOC(=O)N1CCc2c(sc(NC(=O)/C=C/c3ccc[nH]3)c2C#N)C1` [Example 103, 3-Cyano-2-((E)-3-1-H-pyrrol-2-yl-allanoylamino)-4,7-dihydro-5H-thieno[2,3-c]pyridine-6-carboxylic acid ethylester] as the compound, how does the IC50 [1] read?
Answer: Its IC50 is no more than 2 µM.

Question: And the IC50 [2]?
Answer: Its IC50 is no less than 100 µM.

Question: Which results are given for `CCOC(=O)N1CCc2c(sc(NC(=O)/C=C/c3ccccc3Oc3ccccc3)c2C#N)C1` [Example 104, 3-Cyano-2-[(E)-3-(2-phenoxy-phenyl)-allanoylamino]-4,7-dihydro-5H-thieno[2,3-c]pyridine-6-carboxylic acid ethyl ester]?
Answer: IC50 [1]: ≤ 2 µM; IC50 [2]: ≥ 100 µM

Question: `CCOC(=O)N1CCc2c(sc(NC(=O)/C=C/c3c(OC)cccc3OC)c2C#N)C1` [Example 108, 3-Cyano-2-[(E)-3-(2,6-dimethoxy-phenyl)-allanoylamino]-4,7-dihydro-5H-thieno[2,3-c]pyridine-6-carboxylic acid ethyl ester] was tested. Which IC50 [1] did it give?
Answer: The IC50 was no more than 2 µM.

Question: And the IC50 [2]?
Answer: The IC50 was no less than 100 µM.

Question: Which results are given for `CCOC(=O)N1CCc2c(sc(NC(=O)/C=C/c3cccc4c3OCO4)c2C#N)C1` [Example 111, 2-((E)-3-Benzo[1,3]dioxol-4-yl-allanoylamino)-3-cyano-4,7-dihydro-5H-thieno[2,3-c]pyridine-6-carboxylic acid ethyl ester]?
Answer: IC50 [1]: ≤ 2 µM; IC50 [2]: ≥ 100 µM

Question: Which results are given for `N#Cc1c(NC(=O)/C=C/c2ccccc2)sc2c1CCN(C(=O)OCCN1CCOCC1)C2` [Example 112, 3-Cyano-2-((E)-3-phenyl-allanoylamino)-4,7-dihydro-5H-thieno[2,3-c]pyridine-6-carboxylic acid 2-morpholin-4-yl-ethyl ester]?
Answer: IC50 [1]: ≤ 2 µM; IC50 [2]: ≥ 100 µM

Question: Which results are given for `CN(C)CCOC(=O)N1CCc2c(sc(NC(=O)/C=C/c3ccccc3)c2C#N)C1` [Example 113, 3-Cyano-2-((E)-3-phenyl-allanoylamino)-4,7-dihydro-5H-thieno[2,3-c]pyridine-6-carboxylic acid 2-dimethylamino-ethyl ester]?
Answer: IC50 [1]: ≤ 0.5 µM; IC50 [2]: ≥ 50 µM

Question: Which results are given for `N#Cc1c(NC(=O)/C=C/c2ccccc2)sc2c1CCN(C(=O)OCCN1CCCC1)C2` [Example 114]?
Answer: IC50 [1]: ≤ 2 µM; IC50 [2]: ≥ 100 µM

Question: `N#Cc1c(NC(=O)/C=C/c2ccccc2)sc2c1CCN(C(=O)OCCc1ccccn1)C2` [Example 116, 3-Cyano-2-((E)-3-phenyl-allanoylamino)-4,7-dihydro-5H-thieno[2,3-c]pyridine-6-carboxylic acid 2-pyridin-2-yl-ethyl ester] was tested. Which IC50 [1] did it give?
Answer: Its IC50 is no more than 2 µM.

Question: What about the IC50 [2] of the same compound?
Answer: The IC50 was no less than 100 µM.

Question: How did the IC50 [1] turn out when `N#Cc1c(NC(=O)/C=C/c2ccccc2)sc2c1CCN(C(=O)OCCCc1ccncc1)C2` [Example 117, 3-Cyano-2-((E)-3-phenyl-allanoylamino)-4,7-dihydro-5H-thieno[2,3-c]pyridine-6-carboxylic acid 3-pyridin-4-yl-propyl ester] was run?
Answer: The IC50 was no more than 2 µM.

Question: What about the IC50 [2] of the same compound?
Answer: Its IC50 is no less than 100 µM.

Question: With `COCCOC(=O)N1CCc2c(sc(NC(=O)/C=C/c3ccccc3)c2C#N)C1` [Example 118, 3-Cyano-2-((E)-3-phenyl-allanoylamino)-4,7-dihydro-5H-thieno[2,3-c]pyridine-6-carboxylic acid 2-methoxy-ethyl ester] as the compound, how does the IC50 [1] read?
Answer: The IC50 was no more than 2 µM.

Question: And the IC50 [2]?
Answer: The IC50 was no less than 100 µM.

Question: Which IC50 [1] does the source give for `N#Cc1c(NC(=O)/C=C/c2ccccc2)sc2c1CCN(C(=O)OCCCN1CCOCC1)C2` [Example 120, 3-Cyano-2-((E)-3-phenyl-allanoylamino)-4,7-dihydro-5H-thieno[2,3-c]pyridine-6-carboxylic acid 3-morpholin-4-yl-propyl ester] here?
Answer: The IC50 was no more than 2 µM.

Question: What about the IC50 [2] of the same compound?
Answer: The IC50 was no less than 100 µM.

Question: Which results are given for `Cc1ncc([N+](=O)[O-])n1CCOC(=O)N1CCc2c(sc(NC(=O)/C=C/c3ccccc3)c2C#N)C1` [Example 122, 3-Cyano-2-((E)-3-phenyl-allanoylamino)-4,7-dihydro-5H-thieno[2,3-c]pyridine-6-carboxylic acid 2-(2-methyl-5-nitro-imidazol-1-yl)-ethyl ester]?
Answer: IC50 [1]: ≤ 2 µM; IC50 [2]: ≥ 100 µM

Question: How did the IC50 [1] turn out when `N#Cc1c(NC(=O)/C=C/c2ccccc2)sc2c1CCN(C(=O)OCCCc1ccccn1)C2` [Example 124, 3-Cyano-2-((E)-3-phenyl-allanoylamino)-4,7-dihydro-5H-thieno[2,3-c]pyridin-6-carboxylic acid 3-pyridin-2-yl-propyl ester] was run?
Answer: The IC50 was no more than 0.5 µM.

Question: And the IC50 [2]?
Answer: The IC50 was no less than 50 µM.

Question: How did the IC50 [1] turn out when `N#Cc1c(NC(=O)/C=C/c2ccccc2)sc2c1CCN(C(=O)OCCCc1cccnc1)C2` [Example 125, 3-Cyano-2-((E)-3-phenyl-allanoylamino)-4,7-dihydro-5H-thieno[2,3-c]pyridine-6-carboxylic acid 3-pyridin-3-yl-propyl ester] was run?
Answer: Its IC50 is no more than 2 µM.

Question: What about the IC50 [2] of the same compound?
Answer: The IC50 was no less than 100 µM.

Question: With `N#Cc1c(NC(=O)/C=C/c2ccccc2)sc2c1CCN(C(=O)OCCc1ccncc1)C2` [Example 126, 3-Cyano-2-((E)-3-phenyl-allanoylamino)-4,7-dihydro-5H-thieno[2,3-c]pyridine-6-carboxylic acid 2-pyridin-4-yl-ethyl ester] as the compound, how does the IC50 [1] read?
Answer: The IC50 was no more than 2 µM.

Question: And the IC50 [2]?
Answer: Its IC50 is no less than 100 µM.

Question: Which results are given for `CC1(C)OCC(COC(=O)N2CCc3c(sc(NC(=O)/C=C/c4ccccc4)c3C#N)C2)O1` (centres unmarked) [Example 127, 3-Cyano-2-((E)-3-phenyl-allanoylamino)-4,7-dihydro-5H-thieno[2,3-c]pyridine-6-carboxylic acid 2,2-dimethyl-[1,3]dioxolan-4-ylmethyl ester]?
Answer: IC50 [1]: ≤ 2 µM; IC50 [2]: ≥ 100 µM
